Among the data in US20090253693A1, “2H-BENZO[b][1,4]OXAZIN-3(4H)-ONE DERIVATIVES FOR USE AS STEAROYL CoA DESATURASE INHIBITORS” (priority 2008, published 2009) are IC50 values, retold here.

Each structure is given as a SMILES string. Structures can show the parent of a compound that is named as a salt.

One may read the IC50 as the point on the concentration scale where inhibition reaches its midpoint.

In this experiment the target is T1, SCD (stearoyl-CoA desaturase) (Rattus norvegicus, UniProt P07308).
T1 construct: The rat liver microsomes were collected according to the procedure described in Ozols (1990) Methods Enzm, 182:225; from tissue; host or cells: liver microsomes of male Sprague Dawley rats after induction with a carbohydrate-rich diet
T1 sequence (P07308 1-358): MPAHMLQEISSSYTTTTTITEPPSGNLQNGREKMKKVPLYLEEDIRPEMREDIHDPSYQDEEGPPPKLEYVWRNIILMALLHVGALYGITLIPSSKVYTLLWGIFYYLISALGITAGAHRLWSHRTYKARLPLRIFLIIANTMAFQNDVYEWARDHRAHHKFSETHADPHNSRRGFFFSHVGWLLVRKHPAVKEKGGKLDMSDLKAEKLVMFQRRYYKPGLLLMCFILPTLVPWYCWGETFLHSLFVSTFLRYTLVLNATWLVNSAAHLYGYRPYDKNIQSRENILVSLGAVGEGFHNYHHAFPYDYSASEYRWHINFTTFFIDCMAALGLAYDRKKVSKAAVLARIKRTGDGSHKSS
Nature of the experiment: SCD assay with rat liver microsomes ([3H]stearoyl CoA desaturation, adapted from Talamo and Bloch). The class given is biochemical. The settings on record: rat liver microsomes 0.2 mg/ml final, 30 min preincubation, stearoyl CoA substrate, 45 min, room temperature. From the text: The identification of compounds of the invention as SCD inhibitors was readily accomplished using the SCD enzyme and microsomal assay procedure described in Talamo and Bloch (1969) Analytical Biochemistry 29:300-304.
The rat liver microsomes were collected according to the procedure described in Ozols (1990) Methods Enzm, 182:225.
Male Sprague Dawley Rats were placed on regimented fasting protocol for one week to stimulate SCD enzymatic activity. 48-hour periods were alternated between feeding and fasting to induce and down-regulate SCD activity with SCD activity being induced via carbohydrate rich diet prior to liver perfusion and collection.
The supernatant was then aspirated off and the collected microsomal pellet washed in 25 mL of Glycerol PBS (1× PBS 7.4, 20% Glycerol) and resuspended in 4-5 volumes of Glycerol PBS.
SCD was determined in the desaturase assay buffer. This assay buffer contained 0.1 M Tris buffer, pH 7.2, 2 mM NADH, 4.8 mM ATP, 0.5 mM CoA, 4.8 mM MgCl2, and 0.1% BSA.
The Procedure for the SCD Assay (Adapted from Talamo and Bloch (1969) Analytical Biochemistry 29:300-304)
1 μl of each compound of Formula I was added to an assay plate by a low volume (0.5-10 μL) multichannel pipette. A DMSO control was also prepared. The microsomes were quickly thawed and added to assay buffer so that a concentration of 0.4 mg/ml was achieved (0.2 mg/ml assay final). 50 μl of the microsome suspension in assay buffer was then added into each well in the compound assay plate, the plate was covered, and the microsomes preincubated with the compounds for 30 minutes on the orbital shaker, 50-75 rpm, at room temperature.
After preincubation, the reaction was initiated by the addition of 50 μl of substrate solution (20 μM Stearoyl CoA, [3H]Stearoyl CoA, 74nCi) to the preincubated microsomes/compound suspensions in MilliQ (Millipore) H2O. The reaction mixtures were then incubated for 45 minutes on the orbital shaker at 50-75 rpm at room temperature.
The reaction was terminated by the addition of 10 μl of 21% trichloroacetic acid (TCA) to the reaction mixture followed incubation on the orbital shaker for 30 minutes at 50-75 rpm at room temperature followed by centrifugation for 5 minutes at 3700 rpm.
50 μl of a 6% Bio-Bead suspension in H2O was added to the reaction mixture and the assay plate was sealed. The Bio-Bead mixture was incubated on the orbital shaker for 1 hour, 100-150 rpm at room temperature, and then the mixture was centrifuged at 2000 g for 5 minutes to pellet the Bio-Beads.
25 μl of the supernatant was harvested from each well and transferred to a detection plate. 100 μl of OptiPhase SuperMix scintillation cocktail (containing sufficient NaOH to neutralize the TCA) was added and the solutions mixed by vigorous shaking (300-400 rpm) for 5 minutes at room temperature.
`O=C(CO)NCCN1C(=O)COc2ccc(NCc3ccc(Cl)c(Cl)c3)cc21` [Compound 8, N-(2-(6-(3,4-dichlorobenzylamino)-3-oxo-2H-benzo[b][1,4]oxazin-4(3H)-yl)ethyl)-2-hydroxyacetamide hydrochloride] gave an IC50 of 1.39 nM.
As for `CC1Oc2ccc(NCc3ccc(Cl)c(C(F)(F)F)c3)cc2N(CCNC(=O)CO)C1=O` (racemic) [Compound 12, (±)-N-(2-(6-(4-chloro-3-(trifluoromethyl)benzylamino)-2-methyl-3-oxo-2H-benzo[b][1,4]oxazin-4(3H)-yl)ethyl)-2-hydroxyacetamide], the figure is 1 to 10 nM.
`O=C1COc2ccc(NCc3ccc(Cl)c(Cl)c3)cc2N1CCOc1ccccc1` [Compound 4, 6-(3,4-dichlorobenzylamino)-4-(2-phenoxyethyl)-2H-benzo[b][1,4]oxazin-3(4H)-one]: the IC50 was found to be 22200 nM.
Compound `O=C(NCCN1C(=O)COc2ccc(NCc3ccc(Cl)c(Cl)c3)cc21)c1ccccc1` [Compound 7, N-(2-(6-(3,4-dichlorobenzylamino)-3-oxo-2H-benzo[b][1,4]oxazin-4(3H)-yl)ethyl)benzamide] came in with a half-inhibitory concentration (IC50) of 2.52 nM.
The figure for `CC(=O)NCCN1C(=O)COc2ccc(NCc3ccc(Cl)c(Cl)c3)cc21` [Compound 3, N-(2-(6-(3,4-dichlorobenzylamino)-3-oxo-2H-benzo[b][1,4]oxazin-4(3H)-yl)ethyl)acetamide hydrochloride] is 10.7 nM.
`CC1Oc2ccc(NCc3ccc(Cl)c(Cl)c3)cc2N(CCNC(=O)CO)C1=O` (racemic) [Compound 11, (±)-N-(2-(6-(3,4-dichlorobenzylamino)-2-methyl-3-oxo-2H-benzo[b][1,4]oxazin-4(3H)-yl)ethyl)-2-hydroxyacetamide] displayed an IC50 of 80 nM.
As to `CC(=O)NCCN1C(=O)COc2ccc(NCc3ccc(F)c(C(F)(F)F)c3)cc21` [Compound 6, N-(2-(6-(4-fluoro-3-(trifluoromethyl)benzylamino)-3-oxo-2H-benzo[b][1,4]oxazin-4(3H)-yl)ethyl)acetamide hydrochloride], the half-maximal inhibitory concentration (IC50) came out at 7.8 nM.
The figure for `CC(=O)NCCN1C(=O)C(C)Oc2ccc(NCc3ccc(Cl)c(C(F)(F)F)c3)cc21` (racemic) [Compound 10, (±)-N-(2-(6-(4-chloro-3-(trifluoromethyl)benzylamino)-2-methyl-3-oxo-2H-benzo[b][1,4]oxazin-4(3H)-yl)ethyl)acetamide] is 1 to 10 nM; for `CC(=O)NCCN1C(=O)COc2ccc(NCc3ccc(Cl)c(C(F)(F)F)c3)cc21` [Compound 5, N-(2-(6-(4-chloro-3-(trifluoromethyl)benzylamino)-3-oxo-2H-benzo[b][1,4]oxazin-4(3H)-yl)ethyl)acetamide hydrochloride] it is 4.87 nM.
On to `NC(=O)CCN1C(=O)COc2ccc(NCc3ccc(Cl)c(Cl)c3)cc21` [Compound 1, 3-(6-(3,4-dichlorobenzylamino)-3-oxo-2H-benzo[b][1,4]oxazin-4(3H)-yl)propanamide], for which it took 53.5 nM to reach half-maximal inhibition (IC50).
The figure for `CC(=O)NCCN1C(=O)C(C)Oc2ccc(NCc3ccc(Cl)c(Cl)c3)cc21` (racemic) [Compound 9, (±)-N-(2-(6-(3,4-dichlorobenzylamino)-2-methyl-3-oxo-2H-benzo[b][1,4]oxazin-4(3H)-yl)ethyl)acetamide] is 1 to 10 nM; for `CC(=O)NCCN1C(=O)COc2ccc(NCc3ccccc3)cc21` [Compound 2, N-(2-(6-(benzylamino)-3-oxo-2H-benzo[b][1,4]oxazin-4(3H)-yl)ethyl)acetamide hydrochloride] it is 14900 nM.
